Molecular target: ROCK2 (Homo sapiens, UniProt O75116)
Experiment: ROCK kinase inhibition assay, FITC peptide substrate, LABCHIP 3000 readout
Type: biochemical
Conditions: 5 μM ATP, 1.5 μM peptide substrate
Procedure, shortened: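 Rho kinase variants started the reaction with compound present (DMSO <2%); after incubation, EDTA stop, and phosphorylated and non-phosphorylated peptide separated by microfluidic electrophoresis. Dose-response format, inhibition calculated at each concentration.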

Chain of ROCK2 (O75116 whole entry, species assumed): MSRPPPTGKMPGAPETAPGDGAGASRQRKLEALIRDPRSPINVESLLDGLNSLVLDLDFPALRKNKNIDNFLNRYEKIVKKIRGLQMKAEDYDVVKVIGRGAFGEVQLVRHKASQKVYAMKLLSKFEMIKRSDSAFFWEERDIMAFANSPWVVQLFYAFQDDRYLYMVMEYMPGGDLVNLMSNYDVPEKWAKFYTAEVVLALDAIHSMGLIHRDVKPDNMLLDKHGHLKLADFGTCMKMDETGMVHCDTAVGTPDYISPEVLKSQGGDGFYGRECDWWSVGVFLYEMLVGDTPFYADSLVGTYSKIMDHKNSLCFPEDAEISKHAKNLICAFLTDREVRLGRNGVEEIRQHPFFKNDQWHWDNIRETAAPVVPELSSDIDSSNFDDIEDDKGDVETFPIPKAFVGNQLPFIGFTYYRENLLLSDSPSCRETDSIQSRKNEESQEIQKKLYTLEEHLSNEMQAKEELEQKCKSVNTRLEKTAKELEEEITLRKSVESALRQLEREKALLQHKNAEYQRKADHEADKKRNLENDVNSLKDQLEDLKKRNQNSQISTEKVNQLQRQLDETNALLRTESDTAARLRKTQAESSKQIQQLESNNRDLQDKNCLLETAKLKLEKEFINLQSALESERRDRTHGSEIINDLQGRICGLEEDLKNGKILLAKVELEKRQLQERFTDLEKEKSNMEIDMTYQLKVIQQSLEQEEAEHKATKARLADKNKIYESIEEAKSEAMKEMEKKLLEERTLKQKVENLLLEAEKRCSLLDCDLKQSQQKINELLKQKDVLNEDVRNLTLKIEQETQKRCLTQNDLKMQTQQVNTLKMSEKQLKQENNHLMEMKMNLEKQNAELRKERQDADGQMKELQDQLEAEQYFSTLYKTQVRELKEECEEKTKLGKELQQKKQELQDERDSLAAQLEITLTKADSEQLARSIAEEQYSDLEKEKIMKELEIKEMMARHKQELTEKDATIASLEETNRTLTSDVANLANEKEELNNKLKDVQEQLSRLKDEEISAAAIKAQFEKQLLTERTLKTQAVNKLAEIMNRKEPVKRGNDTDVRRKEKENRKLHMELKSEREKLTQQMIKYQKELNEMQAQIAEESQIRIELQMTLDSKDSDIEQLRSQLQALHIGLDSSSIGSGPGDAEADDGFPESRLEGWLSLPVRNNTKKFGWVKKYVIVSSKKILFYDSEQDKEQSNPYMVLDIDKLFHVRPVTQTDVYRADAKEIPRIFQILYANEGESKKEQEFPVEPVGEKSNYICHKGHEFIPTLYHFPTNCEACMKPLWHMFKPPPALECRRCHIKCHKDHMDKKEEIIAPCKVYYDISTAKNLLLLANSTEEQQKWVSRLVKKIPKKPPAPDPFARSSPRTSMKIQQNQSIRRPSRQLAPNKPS

Compound	IC50
COc1cc(N2CCC3(CCN(C(=O)c4ccc(N5CCCCC5=O)cc4)CC3)C2=O)ccc1-c1cn[nH]c1 [Example 142, 2-[3-methoxy-4-(1H-pyrazol-4-yl)phenyl]-8-[4-(2-oxopiperidin-1-yl)benzoyl]-2,8-diazaspiro[4.5]decan-1-one]	8.8 nM
COc1cc(N2CCC3(CCN(C(=O)c4ccc(-c5nn[nH]n5)cc4)CC3)C2=O)ccc1-c1cn[nH]c1 [Example 143, 2-[3-methoxy-4-(1H-pyrazol-4-yl)phenyl]-8-[4-(2H-1,2,3,4-tetrazol-5-yl)benzoyl]-2,8-diazaspiro[4.5]decan-1-one]	1020 nM
COc1cc(N2CCC3(CCN(C(=O)c4ccc(-n5cncn5)nc4)CC3)C2=O)ccc1-c1cn[nH]c1 [Example 145, 2-[3-methoxy-4-(1H-pyrazol-4-yl)phenyl]-8-[6-(1H-1,2,4-triazol-1-yl)pyridine-3-carbonyl]-2,8-diazaspiro[4.5]decan-1-one]	54 nM
COc1cc(N2CCC3(CCN(C(=O)c4ccc(-n5ccncc5=O)cc4)CC3)C2=O)ccc1-c1cn[nH]c1 [Example 146, 2-[3-methoxy-4-(1H-pyrazol-4-yl)phenyl]-8-[4-(2-oxo-1,2-dihydropyrazin-1-yl)benzoyl]-2,8-diazaspiro[4.5]decan-1-one]	12 nM
COc1cc(N2CCC3(CCN(C(=O)c4ccc(N5CC(=O)NC5=O)cc4)CC3)C2=O)ccc1-c1cn[nH]c1 [Example 147, 1-(4-{2-[3-methoxy-4-(1H-pyrazol-4-yl)phenyl]-1-oxo-2,8-diazaspiro[4.5]decane-8-carbonyl}phenyl)imidazolidine-2,4-dione]	12 nM
COc1cc(N2CCC3(CCN(C(=O)C4CCC(C(N)=O)CC4)CC3)C2=O)ccc1-c1cn[nH]c1 (centres unmarked) [Example 148, 4-{2-[3-methoxy-4-(H-pyrazol-4-yl)phenyl]-1-oxo-2,8-diazaspiro[4.5]decane-8-carbonyl}cyclohexane-1-carboxamide]	2170 nM
COc1cc(N2CCC3(CCN(C(=O)c4cccc5cccnc45)CC3)C2=O)ccc1-c1cn[nH]c1 [Example 149, 2-[3-methoxy-4-(1H-pyrazol-4-yl)phenyl]-8-(quinoline-8-carbonyl)-2,8-diazaspiro[4.5]decan-1-one]	251 nM
COc1cc(CN2CCC(C(=O)N3CCC4(CC3)CCN(c3ccc(-c5cn[nH]c5)c(OC)c3)C4=O)CC2)ccc1F [Example 151, 8-{1-[(4-fluoro-3-methoxyphenyl)methyl]piperidine-4-carbonyl}-2-[3-methoxy-4-(1H-pyrazol-4-yl)phenyl]-2,8-diazaspiro[4.5]decan-1-one]	2470 nM
COc1cc(N2CCC3(CCN(C(=O)C4CCN(S(C)(=O)=O)CC4)CC3)C2=O)ccc1-c1cn[nH]c1 [Example 154, 8-(1-methanesulfonylpiperidine-4-carbonyl)-2-[3-methoxy-4-(1H-pyrazol-4-yl)phenyl]-2,8-diazaspiro[4.5]decan-1-one]	2000 nM
COc1cc(N2CCC3(CCN(C(=O)c4ccc(-c5cccnc5)cc4)CC3)C2=O)ccc1-c1cn[nH]c1 [Example 158, 2-[3-methoxy-4-(1H-pyrazol-4-yl)phenyl]-8-[4-(pyridin-3-yl)benzoyl]-2,8-diazaspiro[4.5]decan-1-one]	4.1 nM
COc1cc(N2CCC3(CCN(C(=O)c4ccc(-c5cnco5)cc4)CC3)C2=O)ccc1-c1cn[nH]c1 [Example 160, 2-[3-methoxy-4-(1H-pyrazol-4-yl)phenyl]-8-[4-(1,3-oxazol-5-yl)benzoyl]-2,8-diazaspiro[4.5]decan-1-one]	23 nM
COc1cc(N2CCC3(CCN(C(=O)c4ccc(-c5nnc(C)o5)cc4)CC3)C2=O)ccc1-c1cn[nH]c1 [Example 162, 2-[3-methoxy-4-(1H-pyrazol-4-yl)phenyl]-8-[4-(5-methyl-1,3,4-oxadiazol-2-yl)benzoyl]-2,8-diazaspiro[4.5]decan-1-one]	27 nM
COc1cc(N2CCC3(CCN(C(=O)c4ccc(-c5nnco5)cc4)CC3)C2=O)ccc1-c1cn[nH]c1 [Example 163, 2-[3-methoxy-4-(1H-pyrazol-4-yl)phenyl]-8-[4-(1,3,4-oxadiazol-2-yl)benzoyl]-2,8-diazaspiro[4.5]decan-1-one]	16 nM
COc1cc(N2CCC3(CCN(C(=O)c4ccc(CN5CCCC5)cc4)CC3)C2=O)ccc1-c1cn[nH]c1 [Example 168, 2-[3-methoxy-4-(1H-pyrazol-4-yl)phenyl]-8-{4-[(pyrrolidin-1-yl)methyl]benzoyl}-2,8-diazaspiro[4.5]decan-1-one]	17 nM
COc1cc(N2CCC3(CCN(C(=O)c4ccc(CS(C)(=O)=O)cc4)CC3)C2=O)ccc1-c1cn[nH]c1 [Example 169, 8-[4-(methanesulfonylmethyl)benzoyl]-2-[3-methoxy-4-(1H-pyrazol-4-yl)phenyl]-2,8-diazaspiro[4.5]decan-1-one]	13 nM
COc1cc(N2CCC3(CCN(C(=O)c4ccc(-c5ccncc5)cc4)CC3)C2=O)ccc1-c1cn[nH]c1 [Example 171, 2-[3-methoxy-4-(1H-pyrazol-4-yl)phenyl]-8-[4-(pyridin-4-yl)benzoyl]-2,8-diazaspiro[4.5]decan-1-one]	5.5 nM
COc1cc(N2CCC3(CCN(C(=O)C4CCN(C)CC4)CC3)C2=O)ccc1-c1cn[nH]c1 [Example 172, 2-[3-methoxy-4-(1H-pyrazol-4-yl)phenyl]-8-(1-methylpiperidine-4-carbonyl)-2,8-diazaspiro[4.5]decan-1-one]	2070 nM
COc1cc(N2CCC3(CCN(C(=O)c4ccc(-c5ccc(S(C)(=O)=O)cc5)cc4)CC3)C2=O)ccc1-c1cn[nH]c1 [Example 173, 8-{4′-methanesulfonyl-[1,1′-biphenyl]-4-carbonyl}-2-[3-methoxy-4-(1H-pyrazol-4-yl)phenyl]-2,8-diazaspiro[4.5]decan-1-one]	3.7 nM

The remaining lines, values ahead:

IC50	Compound
94 nM	COc1cc(N2CCC3(CCN(C(=O)c4ccc5c(c4)CNC5=O)CC3)C2=O)ccc1-c1cn[nH]c1 [Example 144, 2-[3-methoxy-4-(1H-pyrazol-4-yl)phenyl]-8-(1-oxo-2,3-dihydro-1H-isoindole-5-carbonyl)-2,8-diazaspiro[4.5]decan-1-one]
144 nM	COc1cc(N2CCC3(CCN(C(=O)c4ccc5cc6n(c5c4)C(C)CNC6=O)CC3)C2=O)ccc1-c1cn[nH]c1 (centres unmarked) [Example 150, 2-[3-methoxy-4-(1H-pyrazol-4-yl)phenyl]-8-{4-methyl-1-oxo-1H,2H,3H,4H-pyrazino[1,2-a]indole-7-carbonyl}-2,8-diazaspiro[4.5]decan-1-one]
6.2 nM	COc1cc(N2CCC3(CCN(C(=O)c4ccc5c(cnn5C)c4)CC3)C2=O)ccc1-c1cn[nH]c1 [Example 152, 2-[3-methoxy-4-(1H-pyrazol-4-yl)phenyl]-8-(1-methyl-1H-indazole-5-carbonyl)-2,8-diazaspiro[4.5]decan-1-one]
4.5 nM	COc1cc(N2CCC3(CCN(C(=O)c4ccc5c(ccn5C)c4)CC3)C2=O)ccc1-c1cn[nH]c1 [Example 153, 2-[3-methoxy-4-(1H-pyrazol-4-yl)phenyl]-8-(1-methyl-1H-indole-5-carbonyl)-2,8-diazaspiro[4.5]decan-1-one]
40 nM	COc1cc(N2CCC3(CCN(C(=O)c4ccc5ccn(C)c5c4)CC3)C2=O)ccc1-c1cn[nH]c1 [Example 155, 2-[3-methoxy-4-(1H-pyrazol-4-yl)phenyl]-8-(1-methyl-1H-indole-6-carbonyl)-2,8-diazaspiro[4.5]decan-1-one]
54 nM	COc1ccc2c(c1)cc(C(=O)N1CCC3(CC1)CCN(c1ccc(-c4cn[nH]c4)c(OC)c1)C3=O)n2C [Example 156, 8-(5-methoxy-1-methyl-1H-indole-2-carbonyl)-2-[3-methoxy-4-(1H-pyrazol-4-yl)phenyl]-2,8-diazaspiro[4.5]decan-1-one]
22 nM	COc1cc(N2CCC3(CCN(C(=O)c4ccc5c(c4)OCC(=O)N5)CC3)C2=O)ccc1-c1cn[nH]c1 [Example 157, 7-{2-[3-methoxy-4-(1H-pyrazol-4-yl)phenyl]-1-oxo-2,8-diazaspiro[4.5]decane-8-carbonyl}-3,4-dihydro-2H-1,4-benzoxazin-3-one]
29 nM	COc1cc(-c2cn[nH]c2)ccc1C(=O)N1CCC2(CC1)CCN(c1ccc(-c3cn[nH]c3)c(OC)c1)C2=O [Example 159, 8-[2-methoxy-4-(1H-pyrazol-4-yl)benzoyl]-2-[3-methoxy-4-(1H-pyrazol-4-yl)phenyl]-2,8-diazaspiro[4.5]decan-1-one]
17 nM	COc1ccc(C(=O)N2CCC3(CC2)CCN(c2ccc(-c4cn[nH]c4)c(OC)c2)C3=O)c(Br)c1 [Example 161, 8-(2-bromo-4-methoxybenzoyl)-2-[3-methoxy-4-(1H-pyrazol-4-yl)phenyl]-2,8-diazaspiro[4.5]decan-1-one]
2.6 nM	COc1cc(N2CCC3(CCN(C(=O)c4ccc5c(c4)ncn5C)CC3)C2=O)ccc1-c1cn[nH]c1 [Example 164, 2-[3-methoxy-4-(1H-pyrazol-4-yl)phenyl]-8-(1-methyl-1H-1,3-benzodiazole-5-carbonyl)-2,8-diazaspiro[4.5]decan-1-one]
896 nM	COc1cc(N2CCC3(CCN(C(=O)c4cc5cnccc5nc4C)CC3)C2=O)ccc1-c1cn[nH]c1 [Example 165, 2-[3-methoxy-4-(1H-pyrazol-4-yl)phenyl]-8-(2-methyl-1,6-naphthyridine-3-carbonyl)-2,8-diazaspiro[4.5]decan-1-one]
33 nM	COc1cc(N2CCC3(CCN(C(=O)c4ccc5cnccc5c4)CC3)C2=O)ccc1-c1cn[nH]c1 [Example 166, 8-(isoquinoline-6-carbonyl)-2-[3-methoxy-4-(1H-pyrazol-4-yl)phenyl]-2,8-diazaspiro[4.5]decan-1-one]
118 nM	COc1ccc2cc(C(=O)N3CCC4(CC3)CCN(c3ccc(-c5cn[nH]c5)c(OC)c3)C4=O)n(C)c2c1 [Example 170, 8-(6-methoxy-1-methyl-1H-indole-2-carbonyl)-2-[3-methoxy-4-(1H-pyrazol-4-yl)phenyl]-2,8-diazaspiro[4.5]decan-1-one]
29 nM	COc1ccc(C(=O)N2CCC3(CC2)CCN(c2ccc(-c4cn[nH]c4)c(OC)c2)C3=O)c(OC)c1 [Example 174, 8-(2,4-dimethoxybenzoyl)-2-[3-methoxy-4-(1H-pyrazol-4-yl)phenyl]-2,8-diazaspiro[4.5]decan-1-one]
